Laboratory results from patent publication US8865704B2, “Wnt pathway antagonists” (Siena Biotech S.p.A., priority 2009, dated 2014).

Tested on: Wnt/β-catenin pathway
Test: Wnt reporter assay (TCF-Luciferase, Firefly) in DBTRG-05MG cells
Type: cell-based
Details: Homo sapiens, 24 hours after compound addition
Experimental: TCF-Luciferase: Three copies of a 4×TCF responsive elements were cloned into the pcDNA3.1/Zeo(+) vector (Invitrogen) after deletion of the constitutive CMV promoter and the insertion of the Firefly Luciferase from Promega (phFL-TK) to measure the activity of the Wnt/β-catenin pathway. The resulting plasmid was sequenced for quality control.
Cells were grown in 20 μg/ml Zeocin and 20 μg/ml Zeocin plus 30 μg/ml Hygromicin respectively. The cells were plated at a density of 6500 cells/well in poly-D-lysine pre-treated 96 well-plates.
IC50 determination: 36 hours after plating cells were incubated with 8-points (60 μM-40 μM-20 μM-10 μM-5 μM-1.66 μM-0.55 μM-0.185 μM) dilutions compound (0.6% DMSO (v/v)). Each compound was tested in triplicate in single plate. Luciferase detection was done with Dual-Luciferase Reporter Assay System (Promega). 24 hours after compound addition, media was removed and 30 μl of 1× lysis buffer was added to each well for 30 minutes. To each well 45 μl of Dual-Glo Luciferase reagent (Promega) were added and after 1 second delay Luciferase was detected for 1 second using Mithras LB940 instrument. After Firefly luciferase quantification 45 μl of Dual Stop & Glo reagent (Promega) were added to each well and Firefly Renilla was detected using the same parameters described before.
Data were expressed as % of control for Firefly and Renilla luciferase independently; values were calculated using XLFit version 4.2, with a four parameters sigmoid function (XLFit model 205).

IC50, 0.3 to 30 µM:
COc1ccc2c(c1)c(=O)n(C[C@H]1CC[C@H](C(=O)N3CCN(C(=O)C(C)OC)CC3)CC1)c(=O)n2C (some centres unmarked) [Example 142]
Cc1ccc2[nH]c(=O)n(C[C@H]3CC[C@H](C(=O)N4CCN(C(=O)C(C)C)CC4)CC3)c(=O)c2c1 [Example 143]
COCC(=O)N1CCN(C(=O)[C@H]2CC[C@H](Cn3c(=O)c4cc(OC)ccc4n(C)c3=O)CC2)[C@H](C)C1 [Example 144]
COCC(=O)N1CCN(C(=O)[C@H]2CC[C@H](Cn3c(=O)c4cc(OC)ccc4n(C)c3=O)CC2)[C@@H](C)C1 [Example 145]
COc1ccc2c(c1)c(=O)n(C[C@H]1CC[C@H](C(=O)N3CCN(C(=O)c4ccncn4)CC3)CC1)c(=O)n2C [Example 147]
COc1ccc2c(c1)c(=O)n(C[C@H]1CC[C@H](C(=O)Nc3ccc(C)nc3)CC1)c(=O)n2C [Example 148]
COCC(=O)N1CCN(C(=O)[C@H]2CC[C@H](Cn3c(=O)c4cc(OC)ccc4n(C)c3=O)CC2)C[C@@H]1C [Example 149]
COc1ccc2c(c1)c(=O)n(C[C@H]1CC[C@H](C(=O)N3CCN(C(=O)C4CC4)[C@H](C)C3)CC1)c(=O)n2C [Example 150]
COCC(=O)N1CCN(C(=O)[C@H]2CC[C@H](Cn3c(=O)c4cc(OC)ccc4n(C)c3=O)CC2)C[C@H]1C [Example 151]
COc1ccc2[nH]c(=O)n(C[C@H]3CC[C@H](C(=O)N4CCN(C(=O)C5CC5)[C@@H](C)C4)CC3)c(=O)c2c1 [Example 152]
COc1ccc2c(c1)c(=O)n(C[C@H]1CC[C@H](C(=O)Nc3cccnc3)CC1)c(=O)n2C [Example 153]
COc1ccc2c(c1)c(=O)n(C[C@H]1CC[C@H](C(=O)Nc3ccc(OC)nc3)CC1)c(=O)n2C [Example 154]
COc1ccc2c(c1)c(=O)n(C[C@H]1CC[C@H](C(=O)Nc3ccc(OC)nc3OC)CC1)c(=O)n2C [Example 155]
COc1ccc2c(c1)c(=O)n(C[C@H]1CC[C@H](C(=O)N3CCN(C(=O)C4CC4)[C@@H](C)C3)CC1)c(=O)n2C [Example 156]
COc1ccc2[nH]c(=O)n(C[C@H]3CC[C@H](C(=O)N4CCN(C(=O)C5CC5)[C@H](C)C4)CC3)c(=O)c2c1 [Example 157]
COc1ccc2[nH]c(=O)n(C[C@H]3CC[C@H](C(=O)N4CCN(C(=O)C5CC5)CC4)CC3)c2n1 [Example 158]
COCC(=O)N1CCN(C(=O)[C@H]2CC[C@H](Cn3c(=O)[nH]c4ccc(OC)cc4c3=O)CC2)C[C@@H]1C [Example 159]
COc1ccc2[nH]c(=O)n(C[C@H]3CC[C@H](C(=O)N4CCN(C)C(=O)C4)CC3)c2c1 [Example 160]
CCOc1ccc2[nH]c(=O)n(C[C@H]3CC[C@H](C(=O)N4CCN(C(=O)C5CC5)CC4)CC3)c(=O)c2c1 [Example 161]
CCOc1ccc2[nH]c(=O)n(C[C@H]3CC[C@H](C(=O)N4CCN(C(=O)C(C)C)CC4)CC3)c(=O)c2c1 [Example 162]
Cn1c(=O)n(C[C@H]2CC[C@H](C(=O)N3CCN(C(=O)C4CC4)CC3)CC2)c2cc(C(F)(F)F)ccc21 [Example 163]
Cn1c(=O)n(C[C@H]2CC[C@H](C(=O)N3CCOCC3)CC2)c2c(Cl)cccc21 [Example 164]
COc1ccc2c(c1)c(=O)n(C[C@H]1CC[C@H](C(=O)Nc3ccncc3)CC1)c(=O)n2C [Example 165]
COc1ccc2c(n1)n(C[C@H]1CC[C@H](C(=O)N3CCN(C(=O)C4CC4)CC3)CC1)c(=O)n2C [Example 166]
COc1ccc2c(n1)n(C[C@H]1CC[C@H](C(=O)N3CCOCC3)CC1)c(=O)n2C [Example 167]
Cn1c(=O)n(C[C@H]2CC[C@H](C(=O)N3CCN(C(=O)C4CC4)CC3)CC2)c2c(Cl)cccc21 [Example 168]
CN1CCN(C(=O)[C@H]2CC[C@H](Cn3c(=O)n(C)c4ccc(C(F)(F)F)cc43)CC2)CC1=O [Example 170]
COc1ccc2c(c1)c(=O)n(C[C@H]1CC[C@H](C(=O)N3CCN(C(=O)n4ccnc4)CC3)CC1)c(=O)n2C [Example 171]
COc1ccc2c(c1)c(=O)n(C[C@H]1CC[C@H](C(=O)Nc3ccncc3C)CC1)c(=O)n2C [Example 172]
COc1ccc2c(c1)c(=O)n(C[C@H]1CC[C@H](C(=O)Nc3ccc(F)nc3)CC1)c(=O)n2C [Example 173]
COc1ccc2c(c1)c(=O)n(C[C@H]1CC[C@H](C(=O)Nc3cncc(F)c3)CC1)c(=O)n2C [Example 174]
CCOC(=O)N1CCN(C(=O)[C@H]2CC[C@H](Cn3c(=O)c4cc(OC)ccc4n(C)c3=O)CC2)CC1 [Example 176]
COc1ccc2c(c1)c(=O)n(C[C@H]1CC[C@H](C(=O)Nc3ccnc(OC)c3)CC1)c(=O)n2C [Example 177]
COc1cccc2c1CN(C[C@H]1CC[C@H](C(=O)N3CCN(c4nccs4)CC3)CC1)C(=O)N2 [Example 178]
COc1ccc2c(c1)c(=O)n(C[C@H]1CC[C@H](C(=O)N3CCN(C(C)=O)CC3)CC1)c(=O)n2C(F)F [Example 179]
CC(=O)N1CCN(C(=O)[C@H]2CC[C@H](Cn3c(=O)n(C)c4ccc(Cl)cc43)CC2)CC1 [Example 180]
Cn1c(=O)n(C[C@H]2CC[C@H](C(=O)N3CCOCC3)CC2)c2cc(Cl)ccc21 [Example 181]
COC(=O)N1CCN(C(=O)[C@H]2CC[C@H](Cn3c(=O)n(C)c4ccc(OC)cc43)CC2)CC1 [Example 182]
COCC(=O)N1CCN(C(=O)[C@H]2CC[C@H](Cn3c(=O)n(C)c4ccc(OC)cc43)CC2)CC1 [Example 183]
COc1ccc2c(c1)n(C[C@H]1CC[C@H](C(=O)N3CCN(C(=O)C(C)C)CC3)CC1)c(=O)n2C [Example 184]
COc1ccc2c(c1)n(C[C@H]1CC[C@H](C(=O)N3CCN(C(=O)c4cncn4C)CC3)CC1)c(=O)n2C [Example 185]
COc1cc2c(cc1Cl)n(C[C@H]1CC[C@H](C(=O)N3CCOCC3)CC1)c(=O)n2C [Example 186]
COc1ccc2c(c1)c(=O)n(C[C@H]1CC[C@H](C(=O)Nc3ccc4ncccc4c3)CC1)c(=O)n2C [Example 187]
COc1ccc2c(c1)c(=O)n(C[C@H]1CC[C@H](C(=O)Nc3cccc4ncccc34)CC1)c(=O)n2C [Example 188]
COc1ccc2c(c1)c(=O)n(C[C@H]1CC[C@H](C(=O)Nc3ccc(-c4ncco4)cc3)CC1)c(=O)n2C [Example 189]
COc1ccc2c(c1)c(=O)n(C[C@H]1CC[C@H](C(=O)Nc3cnc4ccccn34)CC1)c(=O)n2C [Example 190]
COc1cccc(NC(=O)[C@H]2CC[C@H](Cn3c(=O)c4cc(OC)ccc4n(C)c3=O)CC2)c1 [Example 191]
COc1ccc2c(c1)n(C[C@H]1CC[C@H](C(=O)N3CCN(C(=O)C4CCCO4)CC3)CC1)c(=O)n2C (some centres unmarked) [Example 192]
COc1ccc2c(c1)c(=O)n(C[C@H]1CC[C@H](C(=O)Nc3ccon3)CC1)c(=O)n2C [Example 193]
COc1ccc2c(c1)c(=O)n(C[C@H]1CC[C@H](C(=O)Nc3ccc4nc(C)oc4c3)CC1)c(=O)n2C [Example 194]
COc1ccc2c(c1)c(=O)n(C[C@H]1CC[C@H](C(=O)N3CCN(c4ccncc4)CC3)CC1)c(=O)n2C [Example 195]
CCOc1ccc2c(c1)c(=O)n(C[C@H]1CC[C@H](C(=O)Nc3ccncc3)CC1)c(=O)n2C [Example 196]
CCOc1ccc2c(c1)c(=O)n(C[C@H]1CC[C@H](C(=O)N3CCN(c4ccncc4)CC3)CC1)c(=O)n2C [Example 197]
CCOc1ccc2c(c1)c(=O)n(C[C@H]1CC[C@H](C(=O)N3CCN(C(=O)COC)CC3)CC1)c(=O)n2C [Example 198]
CCOc1ccc2c(c1)c(=O)n(C[C@H]1CC[C@H](C(=O)N3CCN(C(=O)C4CCCC4)CC3)CC1)c(=O)n2C [Example 199]
CCOc1ccc2c(c1)c(=O)n(C[C@H]1CC[C@H](C(=O)N3CCN(C(C)=O)CC3)CC1)c(=O)n2C [Example 200]
COc1ccc2c(c1)c(=O)n(C[C@H]1CC[C@H](C(=O)Nc3cccc4cccnc34)CC1)c(=O)n2C [Example 201]
CC(=O)N1CCN(C(=O)[C@H]2CC[C@H](Cn3c(=O)n(C)c4ccc(C(F)(F)F)cc43)CC2)CC1 [Example 202]
COC(=O)N1CCN(C(=O)[C@H]2CC[C@H](Cn3c(=O)n(C)c4ccc(C)nc43)CC2)CC1 [Example 203]
COCC(=O)N1CCN(C(=O)[C@H]2CC[C@H](Cn3c(=O)n(C)c4ccc(C)nc43)CC2)CC1 [Example 204]
COC(=O)N1CCN(C(=O)[C@H]2CC[C@H](Cn3c(=O)n(C)c4ccc(OC)nc43)CC2)CC1 [Example 205]
CCOc1ccc2c(c1)c(=O)n(C[C@H]1CC[C@H](C(=O)N3CCN(C(=O)c4cncn4C)CC3)CC1)c(=O)n2C [Example 206]
